Results reported in patent US6331520A, “Pharmaceutical compositions of peptides having low solubility in physiological medium” (Applied Research Systems ARS Holding NV, priority 1997, dated 2001).
In brackets after ≈: the same amount, converted by molar mass. One block for each compound: values may come before it. Non-standard residues stand in square brackets, D forms with d. Residues, ends and D or L forms follow the SMILES beside them. *: point of attachment. dPhe(4-Cl) = N[C@H](Cc1ccc(Cl)cc1)C(=O)O; d2Nal = N[C@H](Cc1ccc2ccccc2c1)C(=O)O; Lys(iPr) = CC(C)NCCCC[C@H](N)C(=O)O; d3Pal = N[C@H](Cc1cccnc1)C(=O)O; Nicotinoyl = O=C(c1cccnc1)*

Assays:
Assay type in all cases: physicochemical
[1] = Solubilisation studies for antide: effect of hydrotropic agents in saline; settings: for Solubility: antide 5 mg/ml added
From the text: hydrotropic agents (nicotinamide, sodium saccharin, sodium salicylate, sodium benzoate, histidine hydrochloride, thiamine hydrochloride, phenylalanine).
(§1) Saline used in these studies corresponds to 0.9% sodium chloride solution.
(§2) Following the visual analysis, a number of solutions were selected for further quantitative determination of the solubility by filtration (0.45 μm filters) and appropriate dilution using the RP-HPLC method described above.
The effect of different hydrotropic agents (1.5% & 15% w/w) in saline solutions was also evaluated and is described in Tables 8 and 9.

[2] = Solubilisation studies for antide: effect of pH (WFI, saline, acids)
Description: Solubilisation studies were carried out to study the effect of:
pH (solutions were acidified with either acetic acid or hydrochloric acid)
as §1, §2
Tables 3 to 7 summarise the observations collected in order to obtain information on the solubility behaviour of antide in water for injectables (WFI), WFI acidified by HCl or acetic acid, saline and saline acidified by acetic acid. In agreement with previous studies, the solubility of antide increased as the pH decreased.

[3] = Stability of nicotinamide/antide formulations; design: Stability (antide found): unit not given here
Description: RP-HPLC gradient elution, C-18 (e.g. Vydac 218 TP54, 250×4.6 mm) column. UV detection at 215 nm, injection volume 15 μl, mobile phase A: pH 4.5 phosphate buffer (0.1 M), mobile phase B: acetonitrile, flow rate=1.0 ml/min, runtime=23 min. External standard solution concentrations of 100 μg/ml were injected during analysis. The gradient was: 77% A, 23% B to 52% A, 48% B […].
Four formulations of antide and nicotinamide at different concentration ratios and adjusted to pH 5 were prepared and tested over 3 months at +40° C., +25° C. and +4° C.

[4] = Solubilisation studies for hGRF; settings: for solubility thermodynamic at 1 week: 0.9% NaCl
Description: Solubilisation studies were carried out to study the effect of saline and pH 7 phosphate buffer on the solubility of hGRF.
Qunatitation of the amount of hGRF dissolved was performed by filtration of the equilibrated solution through a 0.45 μm filter prior to dilution and analysis by HPLC.

solubilisation ([1]; 1.5% w/w hydrotropic agents in saline, antide 10 mg/ml): not effective
antide solubilised ([1]; 5% nicotinamide in saline): about 0.5 mg/ml
antide solubilised ([1]; 20% nicotinamide in saline): 8.5 mg/mL
Solubility ([1]; saline + 15% nicotinamide, pH 5.79): 3320 µg/mL
Solubility ([1]; saline + 15% sodium benzoate, pH 6.69): 72 µg/mL
Solubility ([1]; saline + 15% sodium salicylate, pH 5.81): 210 µg/mL
Solubility ([1]; saline + 15% thiamine hydrochloride, pH 3.30): 3010 µg/mL
Solubility ([1]; saline + histidine hydrochloride (5%), pH 4.17): 76 µg/mL
Solubility ([1]; saline + phenylalanine (1.7%), pH 4.59): 66 µg/mL
Solubility ([2]; 10 mg/ml in saline, pH 3.0 or 4.6, 4% acetic acid): not soluble
Solubility ([2]; WFI, 10 mg/ml nominal amount added, pH 4.40): 8130 µg/mL (≈ 5110 µM)
Solubility ([2]; phosphate buffered saline, aqueous buffer, read-out: solubility): 16 µg/mL (≈ 10.1 µM)
Solubility ([2]; saline solution, natural pH 5.04): 25 µg/mL (≈ 15.7 µM)
solubility thermodynamic ([2]; water, without further acidification, read-out: solubility limit): 8100 µg/mL (≈ 5090 µM)
Stability (antide found) ([3]; antide 1 mg/ml, nicotinamide 5%, +4° C., 4W): 0.9
Stability (antide found) ([3]; antide 1 mg/ml, nicotinamide 5%, +4° C., 12W): 1.0
Stability (antide found) ([3]; antide 1 mg/ml, nicotinamide 5%, +25° C., 1W): 0.9
Stability (antide found) ([3]; antide 1 mg/ml, nicotinamide 5%, +25° C., 4W): 0.9
Stability (antide found) ([3]; antide 1 mg/ml, nicotinamide 5%, +25° C., 12W): 1.0
Stability (antide found) ([3]; antide 1 mg/ml, nicotinamide 5%, +40° C., 1W): 1.0
Stability (antide found) ([3]; antide 1 mg/ml, nicotinamide 5%, +40° C., 4W): 0.9
Stability (antide found) ([3]; antide 1 mg/ml, nicotinamide 5%, +40° C., 12W): 1.0
Stability (antide found) ([3]; antide 1 mg/ml, nicotinamide 5%, T = 0): 1.0
Stability (antide found) ([3]; antide 1 mg/ml, nicotinamide 25%, +4° C., 4W): 1.0
Stability (antide found) ([3]; antide 1 mg/ml, nicotinamide 25%, +4° C., 12W): 1.1
Stability (antide found) ([3]; antide 1 mg/ml, nicotinamide 25%, +25° C., 1W): 1.0
Stability (antide found) ([3]; antide 1 mg/ml, nicotinamide 25%, +25° C., 4W): 1.0
Stability (antide found) ([3]; antide 1 mg/ml, nicotinamide 25%, +25° C., 12W): 1.1
Stability (antide found) ([3]; antide 1 mg/ml, nicotinamide 25%, +40° C., 1W): 1.0
Stability (antide found) ([3]; antide 1 mg/ml, nicotinamide 25%, +40° C., 4W): 1.0
Stability (antide found) ([3]; antide 1 mg/ml, nicotinamide 25%, +40° C., 12W): 1.1
Stability (antide found) ([3]; antide 1 mg/ml, nicotinamide 25%, T = 0): 1.0
Stability (antide found) ([3]; antide 10 mg/ml, nicotinamide 5%, +4° C., 1W): 10.3
Stability (antide found) ([3]; antide 10 mg/ml, nicotinamide 5%, +4° C., 4W): 10.0
Stability (antide found) ([3]; antide 10 mg/ml, nicotinamide 5%, +4° C., 12W): 10.5
Stability (antide found) ([3]; antide 10 mg/ml, nicotinamide 5%, +25° C., 1W): gel
Stability (antide found) ([3]; antide 10 mg/ml, nicotinamide 5%, +25° C., 4W): gel
Stability (antide found) ([3]; antide 10 mg/ml, nicotinamide 5%, +25° C., 12W): gel
Stability (antide found) ([3]; antide 10 mg/ml, nicotinamide 5%, +40° C., 1W): gel
Stability (antide found) ([3]; antide 10 mg/ml, nicotinamide 5%, +40° C., 4W): gel
Stability (antide found) ([3]; antide 10 mg/ml, nicotinamide 5%, +40° C., 12W): gel
Stability (antide found) ([3]; antide 10 mg/ml, nicotinamide 5%, T = 0): 9.7
Stability (antide found) ([3]; antide 10 mg/ml, nicotinamide 25%, +4° C., 4W): 10.1
Stability (antide found) ([3]; antide 10 mg/ml, nicotinamide 25%, +25° C., 1W): 9.8
Stability (antide found) ([3]; antide 10 mg/ml, nicotinamide 25%, +25° C., 4W): 9.5
Stability (antide found) ([3]; antide 10 mg/ml, nicotinamide 25%, +25° C., 12W): 11.1
Stability (antide found) ([3]; antide 10 mg/ml, nicotinamide 25%, +40° C., 1W): 10.7
Stability (antide found) ([3]; antide 10 mg/ml, nicotinamide 25%, +40° C., 4W): 9.4
Stability (antide found) ([3]; antide 10 mg/ml, nicotinamide 25%, +40° C., 12W): 10.2
Stability (antide found) ([3]; antide 10 mg/ml, nicotinamide 25%, T = 0): 9.8
chemical degradation ([3]; antide/nicotinamide formulations, after 3 months): No chemical degradation
SMILES: CC(=O)N[C@H](Cc1ccc2ccccc2c1)C(=O)N[C@H](Cc1ccc(Cl)cc1)C(=O)N[C@H](Cc1cccnc1)C(=O)N[C@@H](CO)C(=O)N[C@@H](CCCCNC(=O)c1cccnc1)C(=O)N[C@H](CCCCNC(=O)c1cccnc1)C(=O)N[C@@H](CC(C)C)C(=O)N[C@@H](CCCCNC(C)C)C(=O)N1CCC[C@H]1C(=O)N[C@H](C)C(N)=O [antide] (Ac-[d2Nal][dPhe(4-Cl)][d3Pal]SK(Nicotinoyl)[dK](Nicotinoyl)L[Lys(iPr)]P[dA]-NH2)

solubility thermodynamic at 1 week ([4]; 25° C., one week): 42 µg/mL (≈ 12.5 µM)
solubility thermodynamic at 1 week ([4]; 40° C. for one week): 97 µg/mL (≈ 28.9 µM)
solubility at 1 week ([4]; 25° C., WFI, one week): > 1000 µg/mL
Solubility ([4]; 40° C. for one week, 0.9% NaCl + 5% nicotinamide): 875 µg/mL
solubility thermodynamic at 5 days ([4]; PBS, pH 7, aqueous buffer, 25° C., 5 days): 32 µg/mL (≈ 9.53 µM)
SMILES: CC[C@H](C)[C@H](NC(=O)[C@H](C)NC(=O)[C@H](CC(=O)O)NC(=O)[C@H](C)NC(=O)[C@@H](N)Cc1ccc(O)cc1)C(=O)N[C@@H](Cc1ccccc1)C(=O)N[C@H](C(=O)N[C@@H](CC(N)=O)C(=O)N[C@@H](CO)C(=O)N[C@@H](Cc1ccc(O)cc1)C(=O)N[C@@H](CCCNC(=N)N)C(=O)N[C@@H](CCCCN)C(=O)N[C@H](C(=O)N[C@@H](CC(C)C)C(=O)NCC(=O)N[C@@H](CCC(N)=O)C(=O)N[C@@H](CC(C)C)C(=O)N[C@@H](CO)C(=O)N[C@@H](C)C(=O)N[C@@H](CCCNC(=N)N)C(=O)N[C@@H](CCCCN)C(=O)N[C@@H](CC(C)C)C(=O)N[C@@H](CC(C)C)C(=O)N[C@@H](CCC(N)=O)C(=O)N[C@@H](CC(=O)O)C(=O)N[C@H](C(=O)N[C@@H](CCSC)C(=O)N[C@@H](CO)C(=O)N[C@@H](CCCNC(=N)N)C(N)=O)[C@@H](C)CC)C(C)C)[C@@H](C)O [hGRF, hGRF(1-29)-NH2]
